Test results as given in article PMC9814779, “A triple farnesoid X receptor and peroxisome proliferator-activated receptor α/δ activator reverses hepatic fibrosis in diet-induced NASH in mice” (Communications Chemistry, 2020).

Tests used:
[1] = molecular target: T1, human PPARγ ligand-binding domain (Gal4 chimera) (Homo sapiens, UniProt P37231); test: Gal4 hybrid reporter gene assay, PPARγ; assay type: cell-based; design: Emax: dose or concentration left out as unconfirmed
T1 construct: coding for the hinge region and LBD of the canonical isoform of the respective nuclear receptor; expressed in transfected cells; host or cells: HEK293T
T1 sequence (P37231 238-503 limits assumed): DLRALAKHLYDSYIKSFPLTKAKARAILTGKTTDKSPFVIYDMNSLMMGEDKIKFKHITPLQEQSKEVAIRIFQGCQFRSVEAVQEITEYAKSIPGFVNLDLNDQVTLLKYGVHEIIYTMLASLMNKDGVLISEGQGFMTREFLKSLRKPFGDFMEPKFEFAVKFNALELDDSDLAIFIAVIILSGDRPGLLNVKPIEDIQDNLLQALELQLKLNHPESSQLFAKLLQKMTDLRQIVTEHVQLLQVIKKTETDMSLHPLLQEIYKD

[2] = molecular target: T2, human PPARα ligand-binding domain (Gal4 chimera) (Homo sapiens, UniProt Q07869); test: Gal4 hybrid reporter gene assay, PPARα; assay type: cell-based; design: Emax: dose or concentration left out as unconfirmed
T2 construct: coding for the hinge region and LBD of the canonical isoform of the respective nuclear receptor; expressed in transfected cells; host or cells: HEK293T
T2 sequence (Q07869 239-466 limits assumed): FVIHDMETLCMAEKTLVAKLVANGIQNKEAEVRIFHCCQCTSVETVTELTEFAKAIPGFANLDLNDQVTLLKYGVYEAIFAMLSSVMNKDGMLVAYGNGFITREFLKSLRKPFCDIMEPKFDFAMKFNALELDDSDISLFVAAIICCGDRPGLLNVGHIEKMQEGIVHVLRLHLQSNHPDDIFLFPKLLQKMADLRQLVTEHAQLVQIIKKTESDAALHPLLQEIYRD

[3] = tested on: nuclear receptors related to PPARs and FXR (LXRα/β, RXRα/β/γ, RARα/β/γ, VDR, CAR); settings: previous studies; cited from earlier work
[4] = molecular target: T3, human PPARδ ligand-binding domain (Gal4 chimera) (Homo sapiens, UniProt Q03181); test: Gal4 hybrid reporter gene assay, PPARδ; assay type: cell-based; design: Emax: dose or concentration left out as unconfirmed
T3 construct: coding for the hinge region and LBD of the canonical isoform of the respective nuclear receptor; expressed in transfected cells; host or cells: HEK293T
T3 sequence (Q03181 211-439 limits assumed): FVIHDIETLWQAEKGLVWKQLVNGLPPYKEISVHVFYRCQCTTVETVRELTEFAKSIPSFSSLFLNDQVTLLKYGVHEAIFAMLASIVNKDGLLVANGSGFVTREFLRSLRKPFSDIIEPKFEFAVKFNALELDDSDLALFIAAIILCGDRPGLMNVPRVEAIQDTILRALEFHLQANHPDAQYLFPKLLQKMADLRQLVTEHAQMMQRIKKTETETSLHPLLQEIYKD

[5] = molecular target: T4, human FXR:retinoid X receptor (RXR) heterodimer (Homo sapiens, UniProt Q96RI1); test: Full-length FXR reporter gene assay (BSEP response element) in HeLa cells; assay type: cell-based; design: Emax: dose or concentration left out as unconfirmed; settings: HeLa
T4 construct: pcDNA3-hFXR[32] and pSG5-hRXR[33] served for receptor overexpression in the full-length FXR assay; expressed in transfected cells; host or cells: HeLa
T4 sequence (P19793 whole entry): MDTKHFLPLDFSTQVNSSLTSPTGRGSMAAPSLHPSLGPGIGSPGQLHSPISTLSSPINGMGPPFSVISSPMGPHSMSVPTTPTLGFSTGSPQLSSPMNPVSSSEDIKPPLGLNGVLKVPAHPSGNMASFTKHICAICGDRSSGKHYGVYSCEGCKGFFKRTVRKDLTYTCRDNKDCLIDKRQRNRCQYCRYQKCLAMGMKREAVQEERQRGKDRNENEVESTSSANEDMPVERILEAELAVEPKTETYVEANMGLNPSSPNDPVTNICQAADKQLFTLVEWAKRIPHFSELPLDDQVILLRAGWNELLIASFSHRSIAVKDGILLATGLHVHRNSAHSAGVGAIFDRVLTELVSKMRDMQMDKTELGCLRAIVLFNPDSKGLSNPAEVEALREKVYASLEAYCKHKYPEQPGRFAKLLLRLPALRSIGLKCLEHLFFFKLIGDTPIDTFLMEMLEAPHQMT
T4 sequence (Q96RI1 whole entry): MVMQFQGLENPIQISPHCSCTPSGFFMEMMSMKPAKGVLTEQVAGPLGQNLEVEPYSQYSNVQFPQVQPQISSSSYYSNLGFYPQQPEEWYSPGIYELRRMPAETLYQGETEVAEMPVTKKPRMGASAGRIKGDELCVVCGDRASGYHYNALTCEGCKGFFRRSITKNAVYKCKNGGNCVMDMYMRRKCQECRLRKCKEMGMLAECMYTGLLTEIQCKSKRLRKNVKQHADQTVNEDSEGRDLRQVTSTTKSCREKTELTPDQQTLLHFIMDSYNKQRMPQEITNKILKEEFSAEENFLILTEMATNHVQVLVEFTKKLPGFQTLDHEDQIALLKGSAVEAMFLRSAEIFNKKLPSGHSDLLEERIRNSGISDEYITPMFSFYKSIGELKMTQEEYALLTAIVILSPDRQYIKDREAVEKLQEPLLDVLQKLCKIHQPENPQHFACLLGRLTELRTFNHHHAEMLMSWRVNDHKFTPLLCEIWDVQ

[6] = tested on: HEK293T and U2OS cells; test: Multiplex high-content live-cell toxicity assay; assay type: cell-based; settings: seven concentrations between 100 nM and 100 µM; 2, 12 and 24 h
Protocol: Before proof-of-concept in vivo evaluation, we profiled stability and cytotoxicity of the triple modulator 41 in vitro. […] To determine cytotoxicity, we employed a multiplex high-content life-cell imaging screen[24] on HEK293T and U2OS cells. For this, the cells were treated with fluorescent probes to detect Annexin V as apoptosis marker (Annexin V Alexa488), dead cells (Yo-Pro3), and DNA/nucleus (Hoechst33342). Cells were then incubated with 41, OCA, or elafibranor at seven concentrations between 100 nM and 100 µM, and cell health was determined by fluorescence imaging after 2, 12, and 24 h (Fig. 6g–i and Supplementary Fig. 5).
Supplementary Methods for in Vitro Characterization
Cytotoxicity was assessed in a high content screen on two different cell lines, HEK293T (ATCC® CRL-1573™) and U2OS (ATCC®HTB-96™), essentially as described previously6. In brief, cells were cultured in DMEM plus L-Glutamine (high glucose) supplemented with 10 % FBS (Gibco) and Penicillin/Streptomycin (Gibco). […]
After 2 h, 12 h and 24 h, cellular shape and fluorescence was analyzed on an automated, high-content confocal microscope (CQ1, Yokogawa). […]
50 ms, 40%; bright field, 300ms, 100% transmission, one centered field per well, 7 z stacks per well with 55 µm spacing. Images were analyzed with the Pathfinder software (Yokogawa). Cells were detected and gated as previously described6. […]
The solubilized test compound (5 μL, final concentration 10 μM in phosphate buffer (0.1 M, pH 7.4)) was preincubated at 37 °C in 432 μL of phosphate buffer (0.1 M, pH 7.4) together with a 50 μL NADPH regenerating system (30 mM glucose-6-phosphate, 4 U/mL glucose-6-phosphate dehydrogenase, 10 mM NADP, 30 mM MgCl2). […] The supernatants were analyzed and test compound was quantified by HPLC: mobile phase: MeOH 83%/H2O 17%/formic acid 0.1%; flow-rate: 1 mL/min; stationary phase: MultoHigh Phenyl phase, 5 μm, 250×4, precolumn, phenyl, 5 μm, 20×4; detection wavelength: 330 and 254 nm; injection volume: 50 μL. […]

[7] = tested on: FXR- and PPAR-regulated gene expression in HepG2 cells; test: FXR- and PPAR-regulated gene expression in HepG2 cells (qRT-PCR); assay type: cell-based, human; settings: HepG2, 1 µM, 12 h, vs. vehicle-treated cells
Protocol: HepG2 cells (DSMZ) were grown in DMEM high glucose, supplemented with 10% FCS, 1 mM SP, penicillin (100 U/mL), and streptomycin (100 μg/mL) at 37 °C and 5% CO2 and seeded in 6-well plates (2 × 10^6 per well). After 24 h, medium was changed to Minimal Essential Medium supplemented with 1% charcoal-stripped FCS, penicillin (100 U/mL), streptomycin (100 μg/mL), and 2 mM L-glutamine. After an additional 24 h, cells were incubated with test compound 41 (0.1 µM, 0.3 µM, 1 μM), OCA (1 μM), or elafibranor (1 µM) dissolved in the same medium with 0.1% DMSO or medium with 0.1% DMSO alone as untreated control for 12 h, harvested, washed with cold phosphate-buffered saline (PBS), and then directly used for RNA extraction. C2C12 cells (American Type Culture Collection, ATCC) were grown in DMEM high glucose, supplemented with 10% FCS, 1 mM SP, penicillin (100 U/mL), and streptomycin (100 μg/mL) at 37 °C and 5% CO2 and seeded in 6-well plates (1 × 10^6 per well). Upon reaching confluence, medium was changed to Eagle’s Minimal Essential Medium supplemented with 2% horse serum, penicillin (100 U/mL), streptomycin (100 μg/mL), and 2 mM L-glutamine. Cells were then differentiated in this medium for 5 days before incubation with test compounds 41 (1 μM) or L165,041 (1 μM) dissolved in the same medium with 0.1% DMSO or medium with 0.1% DMSO alone as untreated control for 8 h. Cells were harvested, washed with cold PBS, and then directly used for RNA extraction. Total RNA was extracted from HepG2 cells or C2C12 cells using the total RNA Mini Kit (R6834-02, Omega Bio-Tek, Inc., Norcross, GA, USA). Two micrograms of extracted RNA were then reverse-transcribed into cDNA with the High-Capacity cDNA Reverse Transcription Kit (4368814, Thermo Fischer Scientific, Inc.). FXR- and PPAR-regulated gene expression was then studied by quantitative real-time PCR (qRT-PCR) analysis with a StepOnePlus System (Life Technologies, Carlsbad, CA, USA) using PowerSYBRGreen (Life Technologies; 12.5 μL per well). Each sample was set up in duplicates and repeated in four independent experiments. Data were analyzed by the comparative ΔΔCT method with glyceraldehyde 3-phosphate dehydrogenase (GAPDH) as reference gene. The following primers were used for HepG2 cells (human genes): hGAPDH: 5 ′-ATATGATTCCACCCATGGCA (fw), 5′-GATGATGACCCTTTTGGCTC (rev); hSHP: 5′-GCTGTCTGGAGTCCTTCTGG (fw), 5′-CCAATGATAGGGCGAAAGAAGAG (rev); hCYP7A1: 5′-CACCTTGAGGACGGTTCCTA (fw), 5′-CGATCCAAAGGGCATGTAGT (rev); hBSEP: 5′-CATGGTGCAAGAAGTGCTGAGT (fw), 5′-AAGCGATGAGCAACTGAAATGAT (rev); hACOX: 5′-ACT CGC AGC CAG CGT TAT G (fw), 5′-AGG GTC AGC GAT GCC AAA C (rev); hPDK4: 5′-AGAGCCTGATGGATTTGGTG (fw), 5′-GCTTGGGTTTCCTGTCTGTG (rev); hCPT1: 5′-ACAGTCGGTGAGGCCTCTTAT (fw), 5′-TCTTGCTGCCTGAATGTGAGT (rev); hFGF21: 5′-ATGGATCGCTCCACTTTGACC (fw), 5′-GGGCTTCGGACTGGTAAACAT (rev). The following primers were used for C2C12 cells (murine genes)[36]: mGAPDH: 5′-CGACTTCAACAGCAACTCCCACTCTTCC (fw), 5′-TGGGTGGTCCAGGGTTTCTTACTCCTT (rev); mPCK: 5′-TGTTTACTGGGAAGGCATCG (fw), 5′-CAGAATCTCGAGTTGGGATGG (rev); mGLUT3: 5′-CGTCCTTGAAGATTCCTGTTGA (fw), 5′-GTC ACC CAA CTA CGT CCA G (rev); mLPL: 5′-GTCAGGTTCTCTCTTGTACAGG (fw), 5′-TCTAACTGCCACTTCAACCAC (rev).

[8] = tested on: diet-induced mouse model of NASH; settings: cited from earlier work
[9] = tested on: STAM NASH; settings: cited from earlier work
[10] = tested on: choline-deficient, L-amino acid-defined, high-fat diet-induced NASH in mice; design: method as in PMID 29164820; settings: cited from earlier work
[11] = tested on: (foz/foz) mice under atherogenic diet; settings: without a pronounced effect on hepatic inflammation; cited from earlier work

With `O=C(O)Cc1cccc(NC(=O)c2ccccc2NC(=O)c2ccc3ccccc3c2)c1` [compound 5] the EC50 [1] was 16 ± 1 µM, the Emax ([1]; read-out: max. rel. act. PPARγ) was 14% and the EC50 ([2]; EC50 [μM] PPARα, HEK293T, mean ± SEM, n = 3) was 5 ± 1 µM. For the same molecule, the Emax ([2]; read-out: max. rel. act. PPARα) was 37%, the “selectivity over related nuclear receptors” value [3] was “selective over related nuclear receptors” and the EC50 ([4]; EC50 [μM] PPARδ, HEK293T, mean ± SEM, n = 3) was 4.9 ± 0.9 µM. For the same molecule, the Emax ([4]; read-out: max. rel. act. PPARδ) was 34%, the Emax ([5]; read-out: max. rel. act. FXR) was 21% and the EC50 ([5]; mean ± SEM, n = 3, read-out: EC50 [μM] FXR) was 2.5 ± 0.2 µM.

In the case of `CSc1ccc(C(=O)/C=C/c2cc(C)c(OC(C)(C)C(=O)O)c(C)c2)cc1` [elafibranor], the “cytotoxicity (cell health, apoptosis, necrosis, lysis)” value [6] is reported as “non-toxic up to 100 µM concentration over 24 h”, the “mRNA expression of FXR-regulated genes (BSEP, SHP, CYP7A1)” value [7] is reported as “no effect on FXR activity” and the “mRNA expression of PPAR-regulated genes (ACOX, PDK4, CPT1, FGF21)” value [7] is reported as “strongly promoted the expression of PPAR-regulated genes”. The anti-steatotic effect ([8]; OCA 30 mg/kg, OCA/elafibranor 30 mg/kg + 10 mg/kg, elafibranor 10 mg/kg) was “less pronounced” and the anti-fibrotic activity ([8]; equivalent, previously reported study) was “only weak anti-fibrotic activity compared to vehicle”.

For `CC[C@@H](Oc1cccc(CN(CCCOc2ccc(OC)cc2)c2nc3ccccc3o2)c1)C(=O)O` [pemafibrate], the “effects in STAM NASH” value [9] is listed as “counter hepatocyte ballooning in STAM NASH without affecting hepatic steatosis and inflammation”.

For `CCO[C@@H](Cc1ccc(OCCn2c(C)ccc2-c2ccc(SC)cc2)cc1)C(=O)O` [saroglitazar], the anti-steatosis efficacy [10] is listed as “stronger anti-steatosis efficacy than the selective agents fenofibrate (PPARα) and pioglitazone (PPARγ)”.

For `CCO[C@H](COc1ccc(C(F)(F)F)cc1)CSc1ccc(OCC(=O)O)c(C)c1` [seladelpar], the “effects in (foz/foz) mice under atherogenic diet” value [11] is given as “improved steatosis and hepatocyte ballooning”.
